From patent US12297246B2, “Interleukin-15 activity antagonist peptide” (CENTRO DE INGENIERÍA GENÉTICA Y BIOTECNOLOGÍA, priority 2017, dated 2025)
“Also recorded” adds a separate entry of the source. Where a SMILES comes first, the peptide text is derived from it. Bridges are numbered along the chain shown (N, C = ends). Roman numbers before positions name the chains, in order. Where no end group is shown, it is not given here. [ ]: non-standard residue; d: D form.

Columns and labels:
CTLL-2 cells = test: IL-15-induced CTLL-2 cell proliferation assay; assay type: cell-based; settings: for IC50: fixed IL-15 concentration of 300 μg/mL, colorimetric assay
From the text: The proliferation of the CTLL-2 cell line is dependent on IL-15. Molecular entities that bind to IL-15 or its receptor subunit inhibit the proliferation of this cell line. To evaluate the antagonist capacity of peptides designed and obtained in the present invention, was followed the procedure described by Santos et al in 2012. Peptide 1 was included in all assays.
The realization of this colorimetric assay allowed calculating the IC50 value of each peptide, for a fixed IL-15 concentration of 300 μg/mL.

[1] = Solubility of the peptides
IL-15/IL-15Rα complex = biological target: T1, IL-15/IL-15Rα complex (Homo sapiens, UniProt Q13261); test: Inhibition of IL-15/IL-15Rα complex formation (ELISA-type test); assay type: binding
T1 construct: all evaluated peptides recognized IL-15Rα immobilized on the ELISA plate
T1 sequence (Q13261 31-205 limits assumed, one chain of several): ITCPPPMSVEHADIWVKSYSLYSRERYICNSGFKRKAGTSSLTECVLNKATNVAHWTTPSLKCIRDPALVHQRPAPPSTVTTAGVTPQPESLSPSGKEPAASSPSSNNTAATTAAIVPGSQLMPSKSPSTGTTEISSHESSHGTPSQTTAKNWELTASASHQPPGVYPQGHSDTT
Description: Once the synthetic peptides were obtained and characterized, their binding capacity to IL-15Rα was determined. This evaluation was carried out by means of an ELISA type test. In addition, the % inhibition of the formation of the IL-15/IL-15Rα complex presented by each peptide was calculated. Both the procedure for the ELISA-type test and the equation used to calculate the % inhibition of the formation of the IL-15/IL-15Rα complex are detailed in the article published by Santos et al in 2012 (Santos A. et al. J. Pept. Sci. 2012; 18: 25-29).

| Molecule | IC50 (CTLL-2 cells) | solubility [1] | % inhibition of IL-15/IL-15Rα complex formation (IL-15/IL-15Rα complex) | antagonist effect compared with Peptide 1 (CTLL-2 cells; IL-15-induced CTLL-2 proliferation) |
| --- | --- | --- | --- | --- |
| CSCC[C@@H](NC(=O)[C@H](C)NC(=O)[C@@H](NC(=O)[C@@H](NC(=O)[C@@H](N)CCCCN)C(C)C)[C@@H](C)O)C(=O)N[C@@H](CCCCN)C(=O)N[C@@H](CS)C(=O)N[C@@H](Cc1ccccc1)C(=O)N[C@@H](CC(C)C)C(=O)N[C@@H](CC(C)C)C(N)=O [Peptide 6] (H-KVTA[dM]KCFLL-NH2) | 292 µM | – | – | – |
| CSCC[C@H](NC(=O)[C@@H](C)NC(=O)[C@@H](NC(=O)[C@@H](NC(=O)[C@H](N)CCCCN)C(C)C)[C@@H](C)O)C(=O)N[C@@H](CCCCN)C(=O)N[C@@H](CS)C(=O)N[C@@H](Cc1ccccc1)C(=O)N[C@@H](CC(C)C)C(=O)N[C@@H](CC(C)C)C(N)=O [Peptide 13] (H-[dK]VT[dA]MKCFLL-NH2) | 29 µM | completely soluble | 89% | – |
| CSCC[C@H](NC(=O)[C@H](C)NC(=O)[C@@H](NC(=O)[C@H](NC(=O)[C@@H](N)CCCCN)C(C)C)[C@@H](C)O)C(=O)N[C@@H](CCCCN)C(=O)N[C@@H](CS)C(=O)N[C@@H](Cc1ccccc1)C(=O)N[C@@H](CC(C)C)C(=O)N[C@@H](CC(C)C)C(N)=O [Peptide 3] (H-K[dV]TAMKCFLL-NH2) | 142 µM | – | – | – |
| CSCC[C@H](NC(=O)[C@H](C)NC(=O)[C@@H](NC(=O)[C@@H](NC(=O)[C@@H](N)CCCCN)C(C)C)[C@@H](C)O)C(=O)N[C@H](CCCCN)C(=O)N[C@@H](CS)C(=O)N[C@@H](Cc1ccccc1)C(=O)N[C@@H](CC(C)C)C(=O)N[C@@H](CC(C)C)C(N)=O [Peptide 7] (H-KVTAM[dK]CFLL-NH2) | 168 µM | – | – | – |
| CSCC[C@H](NC(=O)[C@H](C)NC(=O)[C@@H](NC(=O)[C@@H](NC(=O)[C@@H](N)CCCCN)C(C)C)[C@@H](C)O)C(=O)N[C@@H](CCCCN)C(=O)N[C@H](CS)C(=O)N[C@@H](Cc1ccccc1)C(=O)N[C@@H](CC(C)C)C(=O)N[C@@H](CC(C)C)C(N)=O [Peptide 8] (H-KVTAMK[dC]FLL-NH2) | 103 µM | – | – | – |
| CSCC[C@H](NC(=O)[C@H](C)NC(=O)[C@@H](NC(=O)[C@@H](NC(=O)[C@@H](N)CCCCN)C(C)C)[C@@H](C)O)C(=O)N[C@@H](CCCCN)C(=O)N[C@@H](CS)C(=O)N[C@@H](Cc1ccccc1)C(=O)N[C@H](CC(C)C)C(=O)N[C@@H](CC(C)C)C(N)=O [Peptide 10] (H-KVTAMKCF[dL]L-NH2) | 134 µM | – | – | – |
| KVTAMKCFLL-NH2 [Peptide 1, reference compound] | 130 µM | – | – | – |
| CSCC[C@H](NC(=O)[C@H](C)NC(=O)[C@@H](NC(=O)[C@@H](NC(=O)[C@@H](N)CCCCN)C(C)C)[C@@H](C)O)C(=O)N[C@@H](CCCCN)C(=O)N[C@@H](CS)C(=O)N[C@H](Cc1ccccc1)C(=O)N[C@@H](CC(C)C)C(=O)N[C@@H](CC(C)C)C(N)=O [Peptide 9] (H-KVTAMKC[dF]LL-NH2) | 118 µM | – | – | – |
| CSCC[C@H](NC(=O)[C@@H](C)NC(=O)[C@@H](NC(=O)[C@@H](NC(=O)[C@@H](N)CCCCN)C(C)C)[C@@H](C)O)C(=O)N[C@@H](CCCCN)C(=O)N[C@H](CS)C(=O)N[C@@H](Cc1ccccc1)C(=O)N[C@@H](CC(C)C)C(=O)N[C@@H](CC(C)C)C(N)=O [Peptide 15] (H-KVT[dA]MK[dC]FLL-NH2; N-terminus assumed) | 296 µM | – | – | equal or less antagonist effect than the original peptide; also recorded: less active than Peptide 1 |
| CSCC[C@H](NC(=O)[C@H](C)NC(=O)[C@@H](NC(=O)[C@@H](NC(=O)[C@H](N)CCCCN)C(C)C)[C@@H](C)O)C(=O)N[C@@H](CCCCN)C(=O)N[C@@H](CS)C(=O)N[C@@H](Cc1ccccc1)C(=O)N[C@@H](CC(C)C)C(=O)N[C@@H](CC(C)C)C(N)=O [Peptide 2] (H-[dK]VTAMKCFLL-NH2) | 100 µM | – | – | – |
| CSCC[C@H](NC(=O)[C@H](C)NC(=O)[C@@H](NC(=O)[C@@H](NC(=O)[C@@H](N)CCCCN)C(C)C)[C@@H](C)O)C(=O)N[C@@H](CCCCN)C(=O)N[C@@H](CS)C(=O)N[C@@H](Cc1ccccc1)C(=O)N[C@@H](CC(C)C)C(=O)N[C@H](CC(C)C)C(N)=O [Peptide 11] (H-KVTAMKCFL[dL]-NH2) | 133 µM | – | – | – |
| CSCC[C@H](NC(=O)[C@H](C)NC(=O)[C@H](NC(=O)[C@@H](NC(=O)[C@@H](N)CCCCN)C(C)C)[C@H](C)O)C(=O)N[C@@H](CCCCN)C(=O)N[C@@H](CS)C(=O)N[C@@H](Cc1ccccc1)C(=O)N[C@@H](CC(C)C)C(=O)N[C@@H](CC(C)C)C(N)=O [Peptide 4] (H-KV[dT]AMKCFLL-NH2) | 159 µM | – | – | – |
| CSCC[C@H](NC(=O)[C@@H](C)NC(=O)[C@@H](NC(=O)[C@@H](NC(=O)[C@@H](N)CCCCN)C(C)C)[C@@H](C)O)C(=O)N[C@@H](CCCCN)C(=O)N[C@@H](CSSC[C@H](NC(=O)[C@H](CCCCN)NC(=O)[C@H](CCSC)NC(=O)[C@@H](C)NC(=O)[C@@H](NC(=O)[C@@H](NC(=O)[C@@H](N)CCCCN)C(C)C)[C@@H](C)O)C(=O)N[C@@H](Cc1ccccc1)C(=O)N[C@@H](CC(C)C)C(=O)N[C@@H](CC(C)C)C(N)=O)C(=O)N[C@@H](Cc1ccccc1)C(=O)N[C@@H](CC(C)C)C(=O)N[C@@H](CC(C)C)C(N)=O [Peptide 12] (I: H-KVT[dA]MKCFLL-NH2 / II: H-KVT[dA]MKCFLL-NH2; disulfide I:7-II:7) | 8 µM | completely soluble | 96% | – |
| CSCC[C@H](NC(=O)[C@@H](C)NC(=O)[C@@H](NC(=O)[C@@H](NC(=O)[C@@H](N)CCCCN)C(C)C)[C@@H](C)O)C(=O)N[C@@H](CCCCN)C(=O)N[C@@H](CS)C(=O)N[C@@H](Cc1ccccc1)C(=O)N[C@@H](CC(C)C)C(=O)N[C@@H](CC(C)C)C(N)=O [Peptide 5] (H-KVT[dA]MKCFLL-NH2) | 28 µM | completely soluble | 92% | – |
| CSCC[C@H](NC(=O)[C@@H](C)NC(=O)[C@@H](NC(=O)[C@@H](NC(=O)[C@H](N)CCCCN)C(C)C)[C@@H](C)O)C(=O)N[C@@H](CCCCN)C(=O)N[C@@H](CSSC[C@H](NC(=O)[C@H](CCCCN)NC(=O)[C@H](CCSC)NC(=O)[C@@H](C)NC(=O)[C@@H](NC(=O)[C@@H](NC(=O)[C@H](N)CCCCN)C(C)C)[C@@H](C)O)C(=O)N[C@@H](Cc1ccccc1)C(=O)N[C@@H](CC(C)C)C(=O)N[C@@H](CC(C)C)C(N)=O)C(=O)N[C@@H](Cc1ccccc1)C(=O)N[C@@H](CC(C)C)C(=O)N[C@@H](CC(C)C)C(N)=O [Peptide 14] (I: H-[dK]VT[dA]MKCFLL-NH2 / II: H-[dK]VT[dA]MKCFLL-NH2; disulfide I:7-II:7) | 12 µM | completely soluble | 92% | – |
